# Like-named read-outs stand apart in the source and are kept apart here.
# Tested on: MCH receptors
# Test: MCH receptor activity class (method not given)
# [1] = class 1-3 by percent of control at 10^-7 M or IC50
# [2] = activity class 1-3: percent of control at 10^-7 M or IC50
# [3] = class by percent of control at 10^-7 M or IC50
# [4] = MCH receptor activity class 1-3 (percent of control at 10^-7 M or IC50)
# [5] = MCH receptor, class by percent of control at 10^-7 M or IC50
# [6] = class by percent of control at 10^−7 M or IC50
smiles,measurement,setting,value
CN(C)c1nc(N[C@H]2CC[C@@H](CNC(=O)c3cc(Cl)cc(Cl)c3)CC2)nc2c1CCCC2 [compound 592],class,[1],3 (Class 3 The value of percent of control at 10^−7 M was more than 60% or the value of IC50 was more than 200 nM.)
CN(C)c1ccnc(N[C@H]2CC[C@@H](NC(=O)OCC(C)(C)C)CC2)n1 [compound 1620],class,[2],3 (Class 3 The value of percent of control at 10^−7 M was more than 60% or the value of IC50 was more than 200 nM.)
CN(C)c1cc(N[C@H]2CC[C@@H](NC(=O)Nc3ccccc3-c3ccccc3)CC2)nc2ccccc12 [compound 2124],class,[3],3 (Class 3 The value of percent of control at 10^−7 M was more than 60% or the value of IC50 was more than 200 nM.)
"Cc1c(NC(=O)NC[C@H]2CC[C@@H](Nc3nccc(N(C)C)n3)CC2)cccc1[N+](=O)[O-] [compound 2427, N-[(cis-4-{[4-(dimethylamino)pyrimidin-2-yl]amino}cyclohexyl)methyl]-N′-(2-methyl-3-nitrophenyl)urea]",class,[4],1 (Class 1: The value of percent of control at 10^−7 M was less than 40% or the value of IC50 was less than 50 nM.)
"COc1cc(C(=O)N[C@H]2CC[C@@H](Nc3cc(C)c4ccccc4n3)CC2)cc(OC)c1OC [Example 2552, 3,4,5-trimethoxy-N-{cis-4-[(4-methylquinolin-2-yl)amino]cyclohexyl}benzamide]",class,,1
COc1ccccc1OC(=O)NC[C@H]1CC[C@@H](Nc2cc(N(C)C)c3ccccc3n2)CC1 [compound 1564],class,[2],3 (Class 3 The value of percent of control at 10^−7 M was more than 60% or the value of IC50 was more than 200 nM.)
CN(C)c1nc(N[C@H]2CC[C@@H](NC(=S)NCc3ccc(Cl)cc3Cl)CC2)nc2c1CCCC2 [compound 2032],class,[5],3 (Class 3 The value of percent of control at 10^−7 M was more than 60% or the value of IC50 was more than 200 nM.)
Cc1cnc(N[C@H]2CC[C@@H](NC(=O)C3(c4ccc(Cl)cc4Cl)CC3)CC2)nc1N(C)C [compound 2871],class,[6],1 (Class 1: The value of percent of control at 10^−7 M was less than 40% or the value of IC50 was less than 50 nM.)
"Cc1cnc(N[C@H]2CC[C@@H](NC(=O)N(C)c3ccc(F)cc3)CC2)nc1N(C)C [compound 3026, N′-(cis-4-{[4-(dimethylamino)-5-methylpyrimidin-2-yl]amino}cyclohexyl)-N-(4-fluorophenyl)-N-methylurea]",class,[6],1 (Class 1: The value of percent of control at 10^−7 M was less than 40% or the value of IC50 was less than 50 nM.)
Cc1ccccc1CNC(=O)N[C@H]1CC[C@@H](Nc2nccc(N(C)C)n2)CC1 [compound 2236],class,[3],3 (Class 3 The value of percent of control at 10^−7 M was more than 60% or the value of IC50 was more than 200 nM.)
CN(C)c1ccnc(N[C@H]2CC[C@@H](NC(=O)c3cc4ccccc4s3)CC2)n1 [compound 312],class,[3],3 (Class 3 The value of percent of control at 10^−7 M was more than 60% or the value of IC50 was more than 200 nM.)
CN(C)c1nc(N[C@H]2CC[C@@H](CNC(=O)NC(c3ccccc3)c3ccccc3)CC2)nc2c1CCCC2 [compound 2481],class,[4],3 (Class 3 The value of percent of control at 10^−7 M was more than 60% or the value of IC50 was more than 200 nM.)
Cc1noc(-c2ccccc2)c1NC(=O)NC[C@H]1CC[C@@H](Nc2cc(N(C)C)c3ccccc3n2)CC1 [compound 2391],class,[4],3 (Class 3 The value of percent of control at 10^−7 M was more than 60% or the value of IC50 was more than 200 nM.)
CN(C)c1nc(N[C@H]2CC[C@@H](NC(=O)c3csc(-c4cccs4)n3)CC2)nc2c1CCCC2 [compound 581],class,[1],2 (Class 2: The value of percent of control at 10^−7 M was from 40% to 60% or the value of IC′50 was from 50 nM to 200 nM.)
COc1cc(CNC[C@H]2CC[C@@H](Nc3nc4c(c(N(C)C)n3)CCCC4)CC2)cc(OC)c1 [compound 1380],class,[3],2 (Class 2: The value of percent of control at 10^−7 M was from 40% to 60% or the value of IC′50 was from 50 nM to 200 nM.)
"Cc1cc(C(=O)N[C@H]2CC[C@@H](Nc3nccc(N(C)C)n3)CC2)cc(C)c1[N+](=O)[O-] [compound 913, N-(cis-4-{[4-(dimethylamino)pyrimidin-2-yl]amino}cyclohexyl)-3,5-dimethyl-4-nitrobenzamide]",class,[3],2 (Class 2: The value of percent of control at 10^−7 M was from 40% to 60% or the value of IC′50 was from 50 nM to 200 nM.)
"Cc1nc(N[C@H]2CC[C@@H](NC(=O)c3ccc(F)cc3)CC2)nc(N(C)C)c1C [compound 2846, N-(cis-4-{[4-(dimethylamino)-5,6-dimethylpyrimidin-2-yl]amino}cyclohexyl)-4-fluorobenzamide]",class,[6],1 (Class 1: The value of percent of control at 10^−7 M was less than 40% or the value of IC50 was less than 50 nM.)
CN(C)c1cc(N[C@H]2CC[C@@H](NC(=O)CC(c3ccccc3)c3ccccc3)CC2)nc2ccccc12 [compound 756],class,[3],3 (Class 3 The value of percent of control at 10^−7 M was more than 60% or the value of IC50 was more than 200 nM.)
COc1cc(OC)cc(C(=O)NC[C@H]2CC[C@@H](Nc3nccc(N(C)C)n3)CC2)c1 [compound 421],class,[1],3 (Class 3 The value of percent of control at 10^−7 M was more than 60% or the value of IC50 was more than 200 nM.)
CN(C)c1nc(N[C@H]2CC[C@@H](CNC(=O)Nc3ccc(Cl)cc3C(F)(F)F)CC2)nc2c1CCCC2 [compound 2479],class,[4],3 (Class 3 The value of percent of control at 10^−7 M was more than 60% or the value of IC50 was more than 200 nM.)
Cc1ccc([C@H](C)NC(=O)[C@H]2CC[C@@H](Nc3nc(C)cc(N(C)C)n3)CC2)cc1 [compound 2795],class,[6],1 (Class 1: The value of percent of control at 10^−7 M was less than 40% or the value of IC50 was less than 50 nM.)
C=C(C)CNC(=S)N[C@H]1CC[C@@H](Nc2nc3c(c(N(C)C)n2)CCCC3)CC1 [compound 1950],class,[5],3 (Class 3 The value of percent of control at 10^−7 M was more than 60% or the value of IC50 was more than 200 nM.)
CCOc1ccccc1C(=O)N[C@H]1CC[C@@H](Nc2nc3c(c(N(C)C)n2)CCCC3)CC1 [compound 508],class,[1],3 (Class 3 The value of percent of control at 10^−7 M was more than 60% or the value of IC50 was more than 200 nM.)
CCOC(=O)c1[nH]c2cc(Cl)cc(Cl)c2c1CN[C@H]1CC[C@@H](Nc2cc(N(C)C)c3ccccc3n2)CC1 [compound 1115],class,activity class per percent of control at 10^-7 M or IC50,1 (Class 1: The value of percent of control at 10^−7 M was less than 40% or the value of IC50 was less than 50 nM.)
"COc1ccc([C@H](C)NC(=O)[C@H]2CC[C@@H](Nc3ncc(C)c(N(C)C)n3)CC2)cc1 [compound 2777, cis-4-{[4-(dimethylamino)-5-methylpyrimidin-2-yl]amino}-N-[(1S)-1-(4-methoxyphenyl)ethyl]cyclohexanecarboxamide]",class,[6],1 (Class 1: The value of percent of control at 10^−7 M was less than 40% or the value of IC50 was less than 50 nM.)
COC(=O)c1sccc1NC(=S)N[C@H]1CC[C@@H](Nc2cc(N(C)C)c3ccccc3n2)CC1 [compound 2312],class,[4],3 (Class 3 The value of percent of control at 10^−7 M was more than 60% or the value of IC50 was more than 200 nM.)
CCCCc1ccc(C(=O)N[C@H]2CC[C@@H](Nc3nc(C)cc(N(C)C)n3)CC2)cc1 [compound 2952],class,[6],3 (Class 3 The value of percent of control at 10^−7 M was more than 60% or the value of IC50 was more than 200 nM.)
COc1cccc2cc(C(=O)N[C@H]3CC[C@@H](Nc4cc(N(C)C)c5ccccc5n4)CC3)oc12 [compound 782],class,[3],3 (Class 3 The value of percent of control at 10^−7 M was more than 60% or the value of IC50 was more than 200 nM.)
